Experimental data: patent publication US9618513B2, “Compositions and methods for detecting and treating colorectal cancer” (The Regents of the University of Michigan, priority 2014, dated 2017)

Assays:
[1] = test system: H3K79me2 on NANOG, SOX2, POU5F1 promoters; experiment: H3K79me2-ChIP at core stem cell gene promoters; assay type: cell-based, human
Method: (A) IL-22 induces H3K79me2 in colon cancer cells. Colon cancer cells were treated with IL-22 for 48 hours. Total histone modifications were analyzed by western blot. (B, C) DOT1L inhibitor, EPZ004777 suppresses colon cancer sphere formation induced by IL-22. Colon cancer sphere assay was performed in the presence of IL-22 and EPZ004777. Sphere numbers were recorded. DLD-1 cells (B), primary colon cancer cells (C). (n=5, P<0.05). (D, E) IL-22 stimulates DOT1L complex gene expression. Colon cancer cells were cultured for 12 hours with IL-22. DOT1L complex gene expression was quantified by real-time PCR. DLD-1 cells (D), primary colon cancer cells (E). (n=3, P<0.05). (F) DOT1L knock down results in reduced colon cancer sphere formation induced by IL-22. Colon cancer sphere assay was performed with colon cancer cells expressing sh-DOT1L or vector in the presence of IL-22. Sphere numbers were recorded. (n=5, P<0.05). (G-I), IL-22 causes higher occupancy of H3K79me2 on core stem cell gene promoters. H3K79me2-ChIP assay was performed in DLD-1 colon cancer cells cultured with IL-22. One of 3 experiments is shown. (J-L), DOT1L inhibitor, EPZ004777 results in reduced occupancy of H3K79 on core stem cell gene promoters induced by IL-22. H3K79me2 ChIP was performed in DLD-1 colon cancer cells cultured with or without IL-22 and EPZ004777. One of three experiments is shown. […]

[2] = test system: colon cancer cells; experiment: Colon cancer cell proliferation (Ki67 FACS, H3 thymidine incorporation, cell counting); assay type: cell-based, human
Excerpt: A. GSEA analysis identifies proliferation pathways have positive correlation with IL-22. B. Cell proliferation maker Ki67 was detected by FACS. C. H^3 Thymidine Incorporation was used to detect the function of IL-22 in cell proliferation. D. Cell number was counted after stimulated with IL-22. E. Cells isolated from colon cancer tissue (Tumor cells and Leukocytes) were stimulated with a-CD3 and […] for 3 days, and supernatant mixed with or without anti-IL-22 antibody was co-cultured with DLD1 cells for 24 h to test cell proliferation. F. Cell cyclin-dependent kinase and kinase inhibitors were analyzed by Real-Time PCR.
A, C. Cell proliferation was analyzed using H^3 Thymidine Incorporation. B. The level of total H3K79m2 and H3K27me3 was measured by Western Blot. D. PcG proteins of EZH2, EED, SUZ12 was increased with IL-22(20 ng/ml) treatment. E. EZH2, SUZ12 and EED was detected by Western Blot after IL-22 treated for 24 h or 48 h. F. EZH2 inhibitor DZNep reduced cell proliferation. G.H. The efficiency of EZH2 and SUZ12 knock down was tested by Western Blot. I.J. Cell proliferation was analyzed using H^3 Thymidine Incorporation after knock down of EZH2 and SUZ12. K.L. Relative expression of cyclin-dependent kinase inhibitors (p16 and p18) in shEZH2, shSUZ12 and Dznep treated cells after IL-22 treatment. M. The level of H3K27me3 in the promoter of p16 and p18 was analyzed by ChIP assay.
A. The protein level of phosphorylated STAT3, STAT1 and STATS were activated by IL-22. B. The effect of STAT3 knock down. C. The effect of IL-22 on cell proliferation was analyzed using H^3 Thymidine Incorporation in Stat3 knock down cells. D. Knock down of STAT3 reduced the expression of EZH2 and SUZ12. E. Based on the ENCODE STAT3-ChIP-Seq data base, STAT3 occupancy on the promoter areas of SUZ12 and EED is shown. F. SUZ12/EED DNA was detected by ChIP assay using an antibody against STAT3, c-fos was used as a positive control.
Three primary colon cancer cell lines (SB, WR, JR) were established from fresh colon tissues. These primary colon cancer cells and DLD1 (ATCC) were studied. Colon cancer cells were treated with recombinant IL-22 (R&D) for different time points. The EZH2 inhibitor DZNep was added in conventional or sphere culture (see, e.g., Kryczek, I., et al., (2012) International journal of cancer 130, 29-39). Tumor cell sphere formation and gene expression were examined (see, e.g., Kryczek, I., et al., (2012) International journal of cancer 130, 29-39).

| Compound | H3K79me2 binding in the stem cell gene promoter sites induced by IL-22 ([1]; DLD-1 with or without IL-22 and EPZ004777) | colon cancer cell proliferation induced by IL-22 ([2]; H3 thymidine incorporation) | H3K79me2 binding in proximal promoter areas of NANOG, SOX2, POU5F1 ([1]; DLD-1 cultured with IL-22) | expression of Ki-67 ([2]; FACS) | cell proliferation ([2]; H3 thymidine incorporation and cell number counting) |
| --- | --- | --- | --- | --- | --- |
| CC(C)N(CCCNC(=O)Nc1ccc(C(C)(C)C)cc1)C[C@H]1O[C@@H](n2ccc3c(N)ncnc32)[C@H](O)[C@@H]1O [EPZ004777] | reduced | no influence | – | – | – |
| IL-22: recombinant IL-22 (R&D systems), cytokine interleukin-22 | – | – | increase | increased | increased |
